# Literature values as cited in US20130183261A1, “METHOD AND COMPOSITION FOR DELIVERING ACTIVE INGREDIENT INTO AIR, AND USE THEREOF” (priority 2010, published 2013).
# Conditions: at 25° C.; neat solvent
compound,measurement,value
"CCCOC(C)COC(C)CO (stereo not shown) [DPnP, dipropylene glycol n-propyl ether]",Viscosity,11.4 mPa·s
